{
  "source": "patent US9314471B2",
  "about": "“Methods of preparing pharmaceutical solid state forms” (NeurMedix, Inc., priority 2008, dated 2016)",
  "key": {"[1]": {"tested_on": "breast tumors induced by the administration of the carcinogen N-methyl-nitrosourea (NMU)", "test": "MNU stimulated breast tumor model", "assay_type": "in vivo, Lewis rats", "description": "The following study determined the effect of a formulation prepared with a polymorph of 17α-ethynyl-androst-5-ene-3α,17β-diol (Crystalline Form III of Compound 1) on the rate of growth and incidence of breast tumors induced by the administration of the carcinogen N-methyl-nitrosourea (NMU). Additionally, the activity of Compound 1 was compared to TAMOXIFEN™ ((Z)-2-[4-(1,2-diphenylbut-1-enyl)phenoxy]-N,N-dimethyl-ethanamine), ARIMIDEX™ (anastrozole) and TAXOTERE™ (docetaxel), which are drugs currently used to treat breast cancer.\nSeven week old female Lewis rats (150 animals, 104 required for the study) were anesthetized with isoflurane for NMU administration. NMU was the administered ip. at a dose of 50 mg/Kg. Mammary tumors that developed were measured using a vernier caliper with two axes of the tumor measured in cm. Treatment commenced using a liquid formulation of Compound 1, prepared by dissolving crystalline […] in vehicle, when rats have a tumor volume of 0.5 cm×0.5 cm (at about 12-20 week of age). Treatment continued for 28 consecutive days, followed by 28 days of observation.\nThe experimental groups were Negative control group (no treatment), Vehicle control group (30% cyclodextrin-sulfobutylether in water), two treatment groups (8 mg/rat and 4 mg/rat), three standard therapy groups using an estrogen blocker (TAMOXIFEN™), an aromatase inhibitor (ARIMIDEX™), a cytotoxic agent (TAXOTERE™) and a combination treatment group receiving Compound 1 (8 mg/kg) and TAXOTERE™."}, "established LNCaP tumors": {"tested_on": "established LNCaP tumors", "test": "AED-stimulated LNCaP tumor model, effect on established LNCaP tumors", "assay_type": "in vivo, SCID mice", "settings": "4 mg/mouse/day once a day for three weeks", "description": "(§1) Castrated SCID mice (six week-old) were implanted with a 5 mg AED, 60-day time-release pellet (Innovative Labs, Sarasota Fla.). After three days, all mice were injected subcutaneously in the right flank with 100 μL of 7.5×10^6 LNCaP tumor cells in phenol red-free RPMI mixed 1:1 with Matrigel. Tumor volumes were measured weekly and calculated as a2×b/2 with a being the width and b the length of the tumor in millimeters (reported as mm^3).\nTo test the effect of a Compound 1 on established LNCaP tumors, 36 castrated SCID mice received AED pellets and were inoculated with LNCaP tumors and monitored as described above. Once the tumors reach 15-25 mm^3, the mice were paired by tumor volume, and each mouse in a pair was assigned to the vehicle or 4 mg/mouse/day Compound 1 group. Animals were dosed once a day for three weeks.\n(§2) Statistical analysis: Time to first measurable tumor volume was analyzed via Kaplan-Meier product limit estimates, with the exact log-rank test applied to test for the significance of the difference. Reduction of tumor volume is defined as a reduction in volume of at least 20% of the baseline volume, persisting to the end of the study. To detect the difference between active and control group, Fisher's exact test and exact 95% Cl for the difference was applied. A tumor of non-measurable volume is a tumor that, with the methodology at hand, measures 0 to the end of the study. The growth rate of a tumor was also analyzed via the mixed model."}, "LNCaP Cells [2]": {"tested_on": "LNCaP Cells", "test": "Annexin V-FITC apoptosis detection in LNCaP cells", "assay_type": "cell-based", "settings": "50 nM, four days", "description": "(§3) LNCaP Cells (5×10^5) were seeded in phenol-red free RPMI with 5% hormone depleted charcoal stripped serum (CSS) in 6-well plates and allowed to adhere overnight, then cultured in fetal bovine serum (FBS) or CSS with or without 50 nM Compound 1 for four days. At the end of the incubation period, floating and adherent cells were harvested for cell cycle analysis. LNCaP cells were resuspended in a […] solution of 4,6-diamidino-2-phenylindole (DAPI) and 0.1% NP-40 in a Tris-buffered saline solution (pH 7.0) and analyzed using an Influx cytometer (Cytopiea, Seattle, Wash.). Analyses were performed with MultiCycle software (Phoenix Flow Systems, San Diego, Calif.). The Annexin V-FITC Apoptosis Detection Kit (Calbiochem, La Jolla, Calif.) was used according to the instructions of the manufacturer to detect apoptosis."}, "LNCaP Cells [3]": {"tested_on": "LNCaP Cells", "test": "Cell cycle analysis of LNCaP cells (DAPI, cytometer)", "assay_type": "cell-based", "settings": "50 nM, four days, LNCaP cells in FBS or CSS", "description": "as §3"}, "LNCaP tumor cells": {"tested_on": "LNCaP tumor cells", "test": "AED-stimulated LNCaP tumor model, effect of dose on tumor incidence", "assay_type": "in vivo, SCID mice", "settings": "for mean tumor volume in the animals that developed tumors: 28 days, vehicle 157 mm^3; for tumor incidence (compared to vehicle): daily for 28 days from 24 hours after tumor inoculation", "description": "as §1\nTo test the effect of dose on tumor incidence, a total of 48 castrated male SCID mice were implanted with LNCaP tumor cells as described, and the mice were randomly divided into 4 groups of 12 animals each to provide vehicle control (30% cyclodextrin-sulfobutylether in water) group and treatment groups using 4 mg/mouse/day, 1 mg/mouse/day, and 0.4 mg/mouse/day). Treatment groups used a liquid formulation prepared by dissolving a solid state form of 17α-ethynyl-androst-5-ene-3α,17β-diol (Compound 1) in vehicle, which provided 20 mg Compound 1 per mL in 30% cyclodextrin-sulfobutylether in water. The liquid formulation so prepared was administered 24 hours after tumor inoculation as a 200 μL intraperitoneal (ip) injection. All animals were dosed daily for 28 consecutive days and tumor volumes were measured weekly.\nas §2"}, "[4]": {"test": "Interconversion of crystalline forms in methanol-water (XRPD)", "assay_type": "physicochemical", "description": "Form III Compound 1 (77.1 mg) was added to a glass vial, followed by MeOH (0.8 mL) and a stirring bar. The sample was placed in an oil bath at 65° C. and solids completely dissolved. Additional Form III was added so that excess solids remained and the mixture stirred for about 20 minutes. Additional MeOH (0.2 mL) was added and the mixture was hot filtered into a clean vial using a 0.2 μm nylon filter, and the filtrate was then placed in the oil bath at 65° C. Water (1 mL) was added and the mixture cooled to 20° C. over 2 hours. […] Form I was also produced from a slurry of Form III in 1:1 methanol water or 3:1 methanol:water that is seeded with samples having XRPD patterns of Form IV, Form V, Form VI, Form VII and Form VIII and stirred for 5 da at about 65° C. or 7 da at about 5° C."}, "[5]": {"test": "Vapor stressing of melt-quenched amorphous Compound 1", "assay_type": "physicochemical", "description": "Amorphous compound 1, with varying degrees of crystallinity was also obtained form melt-quenching Form III according to the following procedure. Form III was lightly crushed with a spatula in a vial that was then placed in an oilbath set at 175° C. A nitrogen stream was run through the vial and the vial kept in the oilbath until the sample had melted. The vial was then removed and quickly placed in a bath containing dry ice with acetone. The sample was placed in a freezer under desiccant and analyzed by XRPD for crystallinity.\nThe propensity of amorphous material to convert to various crystalline forms was studied by vapor stressing melt-quenched Compound 1, prepared from Form III by the immediately preceding procedure."}, "[6]": {"test": "Reanalysis of crystalline forms after prolonged standing", "assay_type": "physicochemical", "description": "Thus, crystalline Form V of 17α-ethynyl-androstane-3α,17β-diol is an anhydrate (i.e., has no solvent in its crystal structure).\nPrior to dissolution of Form VI for NMR analysis, the Form VI sample was washed with CCl4 to remove non-specifically absorbed surface solvent. Proton NMR spectroscopy thus indicates Form VI is a dioxane solvate, which is supported by the DTA/TGA data, and is most likely a mono dioxane solvate based upon integration of the δ 3.64 ppm resonance and the weight loss in TGA. After prolonged standing at ambient temperature and pressure, the Form VI sample was reanalyzed by DTA/TGA and proton NMR. […] Thus, desolvation of Form VI may occur if storage precautions are inadequate and may be accompanied by a polymorphic transition to a more thermodynamically stable form such as Form III.\nThus, crystalline Form VII of 17α-ethynyl-androstane-3α,17β-diol is most likely an anhydrate (i.e., has no solvent in its crystal structure)."}},
  "data": [
    {"smiles": "C#C[C@]1(O)CC[C@H]2[C@@H]3CC[C@H]4C[C@H](O)CC[C@]4(C)[C@H]3CC[C@@]21C", "note": "[Compound 1, 17-Ethynyl-10R,13S-dimethyl-2,3,4,5S,6,7,8R,9S,10,11,12,13,14S,15,16,17-hexadecahydro-1H-cyclopenta[a]phenanthrene-3S,17S-diol]", "values": [
      {"measurement": "time to a new tumor as compared to vehicle", "setting": "[1]; 28 consecutive days of treatment, 28 days of observation, p<0.001", "value": "longer time to a new tumor"},
      {"measurement": "time to new tumor compared with TAXOTERE", "setting": "[1]; Compound 1 at 4 mg, p=0.042", "value": "outperformed TAXOTERE™"},
      {"measurement": "tumor burden by volume compared with vehicle", "setting": "[1]; Day 7 on: p<0.001", "value": "less tumor burden than for the vehicle treated group"},
      {"measurement": "median time to new tumor", "setting": "[1]; from first day of dosing, vehicle 10 days", "value": "at least 56 days"},
      {"measurement": "delay to the occurrence of a second tumor vs vehicle", "setting": "[1]; from median times to new tumor", "value": "at least a five fold delay"},
      {"measurement": "mice with a tumor that became non-measurable by Day 15", "setting": "established LNCaP tumors", "value": "two"},
      {"measurement": "growth of established tumors (tumor volume)", "setting": "established LNCaP tumors; tumors 15-25 mm^3 at start, p<0.001 vs vehicle", "value": "significantly blocked the growth of tumors"},
      {"measurement": "percent of mice that reduced their tumor volumes by 20% or more", "setting": "established LNCaP tumors; vs vehicle, p<0.0294", "value": "significantly greater percent of mice"},
      {"measurement": "percentage of apoptotic LNCaP cells", "setting": "LNCaP Cells [2]", "value": "increase in the percentage of apoptotic LNCaP cells"},
      {"measurement": "number of cells in G1", "setting": "LNCaP Cells [3]", "value": "rise in the number of cells in G1"},
      {"measurement": "mean tumor volume in the animals that developed tumors", "setting": "LNCaP tumor cells; 0.4 mg/mouse/day ip", "value": 34, "unit": "mm^3"},
      {"measurement": "mean tumor volume in the animals that developed tumors", "setting": "LNCaP tumor cells; 1 mg/mouse/day ip", "value": 4, "unit": "mm^3"},
      {"measurement": "tumor incidence (compared to vehicle)", "setting": "LNCaP tumor cells; 1 mg/mouse/day ip, p=0.006, n=11", "value": "significant reduction in tumor incidence"},
      {"measurement": "mean tumor volume in the animals that developed tumors", "setting": "LNCaP tumor cells; 4 mg/mouse/day ip", "value": 0, "unit": "mm^3"},
      {"measurement": "tumor incidence (compared to vehicle)", "setting": "LNCaP tumor cells; 4 mg/mouse/day ip, p<0.001, n=12", "value": "significant reduction in tumor incidence"},
      {"measurement": "tumor volume", "setting": "LNCaP tumor cells; all three dose groups (4, 1, 0.4 mg/mouse/day ip, 28 days)", "value": "decreases in tumor volume apparent"},
      {"measurement": "time to a measurable tumor volume", "setting": "LNCaP tumor cells; three treated groups (4, 1, 0.4 mg/mouse/day ip), p<0.01", "value": "statistically significant delay"}
    ]},
    {"smiles": "C#C[C@]1(O)CC[C@H]2[C@@H]3CC[C@H]4C[C@H](O)CC[C@]4(C)[C@H]3CC[C@@]21C", "note": "[Form I, 17α-ethynyl-5α-androstane-3α,17β-diol]", "values": [
      {"measurement": "relative stability of polymorphic forms", "setting": "[4]; methanol-water, slurry seeded with Forms IV-VIII, 5 da at about 65° C. or 7 da at about 5° C.", "value": "most stable polymorphic form in methanol-water"}
    ]},
    {"smiles": "C#C[C@]1(O)CC[C@H]2[C@@H]3CC[C@H]4C[C@H](O)CC[C@]4(C)[C@H]3CC[C@@]21C", "note": "[Form III, 17α-ethynyl-5α-androstane-3α,17β-diol]", "values": [
      {"measurement": "relative thermodynamic stability of polymorphic forms", "setting": "[5]; provided not exposed to methanol-water", "value": "most thermodynamically stable polymorphic form"},
      {"measurement": "conversion of crystalline form (XRPD)", "setting": "[4]; dissolved in MeOH at 65° C., water added, cooled to 20° C. over 2 hours, also slurry in 1:1 or 3:1 methanol:water", "value": "has converted to Form I"}
    ]},
    {"smiles": "C#C[C@]1(O)CC[C@H]2[C@@H]3CC[C@H]4C[C@H](O)CC[C@]4(C)[C@H]3CC[C@@]21C", "note": "[Form V, 17α-ethynyl-5α-androstane-3α,17β-diol]", "values": [
      {"measurement": "polymorphic transition on prolonged standing (XRPD reanalysis)", "setting": "[6]; prolonged standing", "value": "undergone a polymorphic transition to Form III"}
    ]},
    {"smiles": "C#C[C@]1(O)CC[C@H]2[C@@H]3CC[C@H]4C[C@H](O)CC[C@]4(C)[C@H]3CC[C@@]21C", "note": "[Form VI, 17α-ethynyl-5α-androstane-3α,17β-diol]", "values": [
      {"measurement": "desolvation on standing (DTA/TGA reanalysis)", "setting": "[6]; prolonged standing at ambient temperature and pressure", "value": "no TGA weight loss and no desolvation events in DTA"}
    ]},
    {"smiles": "C#C[C@]1(O)CC[C@H]2[C@@H]3CC[C@H]4C[C@H](O)CC[C@]4(C)[C@H]3CC[C@@]21C", "note": "[amorphous Compound 1, 17-ethynyl-5α-androstane-3α,17β-diol]", "values": [
      {"measurement": "conversion of amorphous material to crystalline form", "setting": "[5]; vapor stressing at high humidity", "value": "will convert back to Form III"}
    ]}
  ]
}
